The text below walks through data of patent publication US20210122730A1, “GLUCOCORTICOID RECEPTOR MODULATORS” (ORIC Pharmaceuticals, Inc., priority 2017, published 2021).

Data set [1] addresses T1, PR (Homo sapiens, UniProt P06401).
T1 construct: expressed in transfected cells; host or cells: CHO-K1
T1 sequence (P06401 1-933): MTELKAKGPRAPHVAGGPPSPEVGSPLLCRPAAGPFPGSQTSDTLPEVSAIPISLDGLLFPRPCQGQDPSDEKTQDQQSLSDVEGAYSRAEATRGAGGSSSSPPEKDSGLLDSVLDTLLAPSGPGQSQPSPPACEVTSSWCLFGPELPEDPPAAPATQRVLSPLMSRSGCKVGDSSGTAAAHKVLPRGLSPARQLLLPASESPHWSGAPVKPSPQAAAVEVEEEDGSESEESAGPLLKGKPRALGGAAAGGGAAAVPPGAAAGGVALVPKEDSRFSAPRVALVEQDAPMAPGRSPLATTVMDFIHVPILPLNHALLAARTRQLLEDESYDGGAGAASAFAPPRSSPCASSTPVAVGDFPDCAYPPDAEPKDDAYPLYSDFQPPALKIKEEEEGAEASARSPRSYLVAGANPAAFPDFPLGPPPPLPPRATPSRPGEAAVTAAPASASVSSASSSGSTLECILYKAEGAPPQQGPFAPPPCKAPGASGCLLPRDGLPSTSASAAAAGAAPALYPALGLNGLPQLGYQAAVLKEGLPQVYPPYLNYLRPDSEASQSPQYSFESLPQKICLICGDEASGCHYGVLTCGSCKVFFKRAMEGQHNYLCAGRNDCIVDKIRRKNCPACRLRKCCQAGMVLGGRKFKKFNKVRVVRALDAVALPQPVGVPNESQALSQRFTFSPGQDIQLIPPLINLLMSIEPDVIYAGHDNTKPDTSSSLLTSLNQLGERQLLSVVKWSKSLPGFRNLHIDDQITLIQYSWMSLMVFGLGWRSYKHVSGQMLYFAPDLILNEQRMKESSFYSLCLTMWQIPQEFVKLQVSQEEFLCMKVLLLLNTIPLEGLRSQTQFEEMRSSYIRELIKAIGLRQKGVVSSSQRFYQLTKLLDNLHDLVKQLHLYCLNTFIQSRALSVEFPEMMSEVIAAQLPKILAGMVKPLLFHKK
The experiment in a line: In Vitro PR Luciferase Reporter Assay (antagonist mode, CHO-K1-PR-MMTV-Luc reporter cells). Format: cell-based. The conditions noted are these: antagonist assay with 20 nM Progesterone, 18-24 hours, read-out: PR antagonism IC50. The text has this:
Example C: In Vitro PR Luciferase Reporter Assay
Cell Line: CHO-KI-PR-MMTV-Luc reporter cells
Culture Media: DMEM (with phenol red)+1000FBS
Assay Media: DMEM (without phenol red)+1000CSS
Culture CHO-Kl-PR-MMTV-Luc reporter cells in 15 cm plates in Culture Media at conditions less than 90% confluence.
Prepared 200×DMSO 1:8 serial dilutions of control and test compounds in 96-well non-sterile V bottom plate in DMSO, 8 serial dilutions for each compound.
Prepared 5× Assay Media diluted compound serial dilutions in 96-well non-sterile V bottom plate: Add 97.5 μL/well of Assay Media into 96-well then add 2.5 μl of 200× concentration of compounds and mix well.
Added compounds: 5 μl of assay media diluted compounds were added to appropriate wells and followed a quick spin (1000 rpm, 10 sec) to bring media and cells to the bottom of plate. The plates were covered with SealMate film to avoid evaporation and placed in 37° C. incubator for approximately 18-24 hours.
Read plates: Equilibrated appropriate amount of Promega One-Glo luciferase reagent to room temperature. Removed the plates from incubator and added 25 μL of One-Glo luciferase reagent/well by multiple channel pipette and read the plates with Tecan F500 luminometer within 3 minutes.
The ability of exemplary compounds disclosed herein to inhibit PR activity was quantified and the respective IC50 value was determined. Table 4 provides the cellular IC50 values of exemplary compounds disclosed herein.
(In general: Reporter assays use an easily measured gene product as a stand-in for the process of interest.)

In data set [2] the target is T2, CYP2C8 (Homo sapiens, UniProt P10632).
T2 construct: Pooled human microsomes were obtained from Sekisui XenoTech, KS; tissue Sekisui XenoTech, KS; host or cells: pooled human liver microsomes
T2 sequence (P10632 1-490): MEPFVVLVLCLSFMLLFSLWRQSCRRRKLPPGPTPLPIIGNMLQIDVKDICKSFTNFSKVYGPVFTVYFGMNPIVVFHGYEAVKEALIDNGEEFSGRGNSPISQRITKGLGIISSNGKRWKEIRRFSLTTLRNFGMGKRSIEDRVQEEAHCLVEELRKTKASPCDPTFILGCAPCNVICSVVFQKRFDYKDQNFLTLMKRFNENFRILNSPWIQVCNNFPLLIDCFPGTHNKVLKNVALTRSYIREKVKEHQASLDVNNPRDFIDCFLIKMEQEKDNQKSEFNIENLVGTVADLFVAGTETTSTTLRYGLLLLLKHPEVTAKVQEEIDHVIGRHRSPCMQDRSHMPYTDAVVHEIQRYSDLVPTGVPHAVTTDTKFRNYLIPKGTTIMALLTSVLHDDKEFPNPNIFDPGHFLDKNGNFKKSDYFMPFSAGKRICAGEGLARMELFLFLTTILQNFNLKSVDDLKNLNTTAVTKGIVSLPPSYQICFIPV
The experiment in a line: CYP Inhibition Assay (CYP2C8, human liver microsomes, paclitaxel substrate). Format: in vitro ADME. The conditions noted are these: pH 7.4; pooled human liver microsomes 0.1 mg/mL, probe substrate paclitaxel. An outline of the steps:
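CYP2C8 activity read as 6α-hydroxypaclitaxel formation by LC-MS/MS, with % inhibition versus vehicle control. Reactions ran 5 min at 37° C, pH 7.4 phosphate buffer, 0.1 mg/mL pooled human liver microsomes, 1 mM NADPH, duplicate wells.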

For orientation: IC50 means the concentration that gives 50% inhibition. Usually inhibition stands for how much of the control response was suppressed. Read a low inhibition as little suppression. With `Cn1cc(S(=O)(=O)C[C@H]2CCC3=Cc4c(cnn4-c4ccc(F)cc4)C[C@]3(C(=O)c3cc(C(F)(F)F)ccn3)C2)cn1` (single isomer, unassigned) [Example 118], the 50% inhibitory concentration (IC50) in data set [1] is over 5 µM. In addition, the inhibition at 5 min in data set [2] was at most 25%.

Turning to `CN([C@H]1CCC2=Cc3c(cnn3-c3ccc(F)cc3)C[C@]2(C(=O)c2cc(C(F)(F)F)ccn2)C1)S(=O)(=O)c1ccc(F)cc1` [Example 5, 4-Fluoro-N-((4aS,6S)-1-(4-fluorophenyl)-4a-(4-(trifluoromethyl)picolinoyl)-4,4a,5,6,7,8-hexahydro-1H-benzo[f]indazol-6-yl)-N-methylbenzenesulfonamide], the half-maximal inhibitory concentration (IC50) in data set [1] was over 5 µM. Besides, the inhibition at 5 min in data set [2] was in the range of 25 to 50%.

For the compound `Cn1cc(S(=O)(=O)N(C2CC2)[C@H]2CCC3=Cc4c(cnn4-c4ccc(F)cc4)C[C@]3(C(=O)c3cc(C(F)(F)F)ccn3)C2)cn1` [Example 88, N-cyclopropyl-N-((4aS,6S)-1-(4-fluorophenyl)-4a-(4-(trifluoromethyl)picolinoyl)-4,4a,5,6,7,8-hexahydro-1H-benzo[f]indazol-6-yl)-1-methyl-1H-pyrazole-4-sulfonamide], in data set [1], the IC50 is over 5 µM. The same compound had an inhibition at 5 min in data set [2] of 25 to 50%.

Regarding `CN([C@H]1CCC2=Cc3c(cnn3-c3ccc(F)cc3)C[C@]2(C(=O)c2cc(C(F)(F)F)ccn2)C1)S(=O)(=O)c1ccn(C)n1` [Example 98, N-((4aS,6S)-1-(4-fluorophenyl)-4a-(4-(trifluoromethyl)picolinoyl)-4,4a,5,6,7,8-hexahydro-1H-benzo[f]indazol-6-yl)-N,1-dimethyl-1H-pyrazole-3-sulfonamide], the half-maximal inhibitory concentration (IC50) in data set [1] was determined as 3.47 µM. Further, the inhibition at 5 min in data set [2] was 25 to 50%.

On to `Cn1cc(S(=O)(=O)N(CC2CC2)[C@H]2CCC3=Cc4c(cnn4-c4ccc(F)cc4)C[C@]3(C(=O)c3cc(C(F)(F)F)ccn3)C2)cn1` [Example 103, N-(cyclopropylmethyl)-N-((4aS,6S)-1-(4-fluorophenyl)-4a-(4-(trifluoromethyl)picolinoyl)-4,4a,5,6,7,8-hexahydro-1H-benzo[f]indazol-6-yl)-1-methyl-1H-pyrazole-4-sulfonamide], for which, in data set [1], the 50% inhibitory concentration (IC50) was over 5 µM. The same compound displayed an inhibition at 5 min in data set [2] of 25 to 50%.

For `Cn1ccc(S(=O)(=O)N(CC(F)(F)F)[C@H]2CCC3=Cc4c(cnn4-c4ccc(F)cc4)C[C@]3(C(=O)c3cc(C(F)(F)F)ccn3)C2)n1` [Example 111, N-((4aS,6S)-1-(4-Fluorophenyl)-4a-(4-(trifluoromethyl)picolinoyl)-4,4a,5,6,7,8-hexahydro-1H-benzo[f]indazol-6-yl)-1-methyl-N-(2,2,2-trifluoroethyl)-1H-pyrazole-3-sulfonamide], in data set [1], the concentration for half-maximal inhibition (IC50) is over 5 µM. The compound also came in with an inhibition at 5 min in data set [2] of 25 to 50%.

As to `Cn1ccc(S(=O)(=O)[C@H]2CCC3=Cc4c(cnn4-c4ccc(F)cc4)C[C@]3(C(=O)c3cc(C(F)(F)F)ccn3)C2)n1` [Example 113, ((4aS,6S)-1-(4-Fluorophenyl)-6-((1-methyl-1H-pyrazol-3-yl)sulfonyl)-1,4,5,6,7,8-hexahydro-4aH-benzo[f]indazol-4a-yl)(4-(trifluoromethyl)pyridin-2-yl)methanone], in data set [1], the half-maximal inhibitory concentration (IC50) was over 5 µM. In data set [2], the inhibition at 5 min was at most 25%.

Take `Cn1ccc(S(=O)(=O)N(C2CC2)[C@H]2CCC3=Cc4c(cnn4-c4ccc(F)cc4)C[C@]3(C(=O)c3cc(C(F)(F)F)ccn3)C2)n1` [Example 138, N-cyclopropyl-N-((4aS,6S)-1-(4-fluorophenyl)-4a-(4-(trifluoromethyl)picolinoyl)-4,4a,5,6,7,8-hexahydro-1H-benzo[f]indazol-6-yl)-1-methyl-1H-pyrazole-3-sulfonamide]: the IC50 in data set [1] was over 5 µM. For the same compound, the inhibition at 5 min in data set [2] lay within 50 to 75%.

With `O=C(c1ncc(C(F)(F)F)s1)[C@]12Cc3cnn(-c4ccc(F)cc4)c3C=C1CC[C@H](N(C1CC1)S(=O)(=O)c1ccc(F)cc1)C2` [Example 177, N-cyclopropyl-4-fluoro-N-((4aS,6S)-1-(4-fluorophenyl)-4a-(5-(trifluoromethyl)thiazole-2-carbonyl)-4,4a,5,6,7,8-hexahydro-1H-benzo[f]indazol-6-yl)benzenesulfonamide], the IC50 in data set [1] is over 5 µM. The same compound displayed an inhibition at 5 min in data set [2] of at most 25%.

Turning to `Cn1ccc(S(=O)(=O)N(CC2CC2)[C@H]2CCC3=Cc4c(cnn4-c4ccc(F)cc4)C[C@]3(C(=O)c3ncc(C(F)(F)F)s3)C2)n1` [Example 179, N-(cyclopropylmethyl)-N-((4aS,6S)-1-(4-fluorophenyl)-4a-(5-(trifluoromethyl)thiazole-2-carbonyl)-4,4a,5,6,7,8-hexahydro-1H-benzo[f]indazol-6-yl)-1-methyl-1H-pyrazole-3-sulfonamide], the half-inhibitory concentration (IC50) in data set [1] is over 5 µM. In data set [2], this compound displayed an inhibition at 5 min of 25 to 50%.

As for `CC(C)N([C@H]1CCC2=Cc3c(cnn3-c3ccc(F)cc3)C[C@]2(C(=O)c2cc(C(F)(F)F)ccn2)C1)S(=O)(=O)c1ccn(C)n1` [Example 186, N-((4aS,6S)-1-(4-fluorophenyl)-4a-(4-(trifluoromethyl)picolinoyl)-4,4a,5,6,7,8-hexahydro-1H-benzo[f]indazol-6-yl)-N-isopropyl-1-methyl-1H-pyrazole-3-sulfonamide], the IC50 in data set [1] was over 5 µM. This compound also returned an inhibition at 5 min in data set [2] of 50 to 75%.

For the compound `CC(C)N(C(=O)c1cnn(C)c1)[C@H]1CCC2=Cc3c(cnn3-c3ccc(F)cc3)C[C@]2(C(=O)c2ncc(C(F)(F)F)s2)C1` [Example 211, N-((4aS,6S)-1-(4-fluorophenyl)-4a-(5-(trifluoromethyl)thiazole-2-carbonyl)-4,4a,5,6,7,8-hexahydro-1H-benzo[f]indazol-6-yl)-N-isopropyl-1-methyl-1H-pyrazole-4-carboxamide], the IC50 in data set [1] is over 5 µM. The compound further had an inhibition at 5 min in data set [2] of 25 to 50%.

For `Cn1ccc(S(=O)(=O)N(C2CC(F)(F)C2)[C@H]2CCC3=Cc4c(cnn4-c4ccc(F)cc4)C[C@]3(C(=O)c3cc(C(F)(F)F)ccn3)C2)n1` [Example 227, N-(3,3-difluorocyclobutyl)-N-((4aS,6S)-1-(4-fluorophenyl)-4a-(4-(trifluoromethyl)picolinoyl)-4,4a,5,6,7,8-hexahydro-1H-benzo[f]indazol-6-yl)-1-methyl-1H-pyrazole-3-sulfonamide], the IC50 in data set [1] is over 5 µM. The inhibition at 5 min in data set [2] was in the range of 25 to 50%.

Consider `O=C(c1cc(Cl)ccn1)[C@]12Cc3cnn(-c4ccc(F)cc4)c3C=C1CC[C@H](N(C1CC1)S(=O)(=O)c1ccc(F)cc1)C2` [Example 232, N-((4aS,6S)-4a-(4-chloropicolinoyl)-1-(4-fluorophenyl)-4,4a,5,6,7,8-hexahydro-1H-benzo[f]indazol-6-yl)-N-cyclopropyl-4-fluorobenzenesulfonamide], for which, in data set [1], the IC50 was over 5 µM. Besides, in data set [2], the inhibition at 5 min is 25 to 50%.
